We go through 81 compounds from the METLIN SMRT retention time set (Domingo-Almenara et al. 2019).

The nature of this series: gradient 5% acetonitrile 3 min, to 50% in 2 min, to 85% in 15 min, held 3 min, 100 µL/min. The settings on record: column: Zorbax Extend-C18 2.1 x 50 mm; eluents: water / acetonitrile, 0.1% formic acid. The method, boiled down: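 Standards, all pure, were combined into mixtures of ~100 molecules and run at 100 μL/min on a Zorbax Extend-C18 column (2.1 × 50 mm, 1.8 μm) with water and acetonitrile, each containing 0.1% formic acid. A coupled quadrupole time-of-flight mass spectrometer operated in positive and negative ionization mode. Retention time values come from computationally picked adduct peaks, each inspected manually.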
`Cc1ccc(S(=O)(=O)c2cnc(N3CCC4(CC3)OCCO4)nc2N)cc1`: the RP-LC retention time came to 858 s.
For the compound `Cc1ccc(C(=O)NC2CCN(c3cc(-c4cccs4)[nH]n3)C2)c(C)c1` (stereo unspecified), the RP-LC retention time is 742 s.
Then `COc1ccc(CC(=O)N2CCN(c3cc(C)n4c(C)nnc4n3)CC2)cc1OC`, with 578 s.
Compound `Cc1nc(-c2ccc3c(c2)CCN3C(=O)c2ccc(F)cc2)cs1` gave an RP-LC retention time of 961 s.
In turn, `O=C(c1ccc2[nH]ccc2c1)N1CCN(C(=O)c2nnn3c2COC(c2ccccc2)C3)CC1` (stereo unspecified) came in with an RP-LC retention time of 793 s.
The compound `CC1=C(c2ccccc2)S(=O)(=O)N=C1N1CCCN(C(=O)NCc2ccco2)CC1` gave an RP-LC retention time of 767 s.
`C#CCOCC1CCN(C(=O)Cc2noc3ccccc23)CC1` yielded an RP-LC retention time of 761 s.
In turn, `COc1nccnc1NC1CCN(C(=O)c2cccnc2)CC1` displayed an RP-LC retention time of 692 s.
For `CC1CCc2nn(CC(=O)Nc3cc(F)ccc3F)cc2C1` (stereo unspecified) the value was 983 s; for `Cc1nc(-c2csc(S(=O)(=O)N3CCCC(C(=O)NCCc4ccccc4)C3)c2)no1` (stereo unspecified), 901 s.
Compound `CCc1noc2nc(C)n(CC(=O)NCc3ccc(C)cc3)c(=O)c12` displayed an RP-LC retention time of 829 s.
Regarding `CCN1C(=O)Cc2ccccc2C1C(=O)NCc1ccccc1Br` (stereo unspecified), the RP-LC retention time was determined as 780 s.
`COc1ccc2c(CCNC(=O)Nc3ccc(Cl)cc3)c[nH]c2c1`: the RP-LC retention time stood at 711 s.
Then `COC(=O)CCC(=O)Nc1nc(-c2ccccc2)cs1`, with 840 s; and `Cc1noc2nc(C)n(CC(=O)Nc3ccc(F)c(F)c3)c(=O)c12`, with 790 s; and `COCCNC(=O)CSc1nccc2c1ccn2Cc1ccc(F)cc1`, with 668 s.
`CCCCN(CC)CCNC(=O)c1cn2c3c(ccc(Cl)c3c1=O)OCC2` displayed an RP-LC retention time of 758 s.
Take `CSc1nsc(NN)n1`: the RP-LC retention time amounted to 647 s.
Compound `Cc1ccc(-c2cc3c(N4CCCC(C(=O)NC5CCCCC5)C4)nccn3n2)c(C)c1` (stereo unspecified) displayed an RP-LC retention time of 1010 s.
For `CC(C)CNC(=O)C1(CCO)CCN(Cc2ccccc2)C1` (stereo unspecified), the RP-LC retention time was 589 s.
Compound `COc1cc(-c2nc3ncccn3c2NCc2ccc(C)cc2)cc(OC)c1OC` returned an RP-LC retention time of 746 s.
For `CSc1ccccc1NC(=O)c1cc2ncc(Br)cn2n1` the value was 1020 s.
As for `Cc1ccc(NC(=O)N2CCc3cn(C)c4cccc(c34)C2)cc1`, the RP-LC retention time is 629 s.
As for `COc1ccc(C2C(C(=O)N3CCC(C)CC3)c3cc(OC)c(OC)cc3C(=O)N2C)cc1OC` (stereo unspecified), the RP-LC retention time came to 764 s.
Then `O=S(=O)(c1ccc2c(c1)-c1oncc1CO2)N1CCN(Cc2ccc3c(c2)OCO3)CC1`, with 666 s; and `O=C(Cc1ccc(NC(=O)c2cnc3ccccc3n2)cc1)NCC(F)(F)F`, with 756 s.
Turning to `O=S(=O)(Nc1ccc(F)c(F)c1)c1ccccc1-c1nc(-c2ccccc2)no1`, the RP-LC retention time came out at 1190 s.
Regarding `O=C(c1ccc2nc[nH]c2c1)N1CCCn2nc(-c3ccc(Cl)cc3)cc2C1`, the RP-LC retention time was 643 s.
In turn, `O=C(CN1CC=C(c2cnn(-c3ccccc3)c2)CC1)N1CCCc2ccccc21` returned an RP-LC retention time of 726 s.
As for `Cc1nnc(-c2ccc3ccn(CC(=O)NCc4ccc5c(c4)OCO5)c3c2)o1`, the RP-LC retention time stood at 756 s.
Turning to `COc1ccc(-c2noc(C3CCCN3C(=O)Nc3cc(C)ccc3OC)n2)cc1` (stereo unspecified), the RP-LC retention time came to 859 s.
The compound `COC[C@@H]1CN(Cc2ccc(F)c(Cl)c2)C[C@H]1c1nc(C)no1` came in with an RP-LC retention time of 580 s.
In the case of `CCOc1ncccc1C(=O)N1CCN(c2ccc(-c3ccc(OC)c(OC)c3)nn2)CC1`, the RP-LC retention time is 606 s.
For `CN(Cc1ccccc1)C(=O)C1CCN(S(=O)(=O)Cc2ccccc2)CC1` the value was 867 s; for `Cc1ccc(NC(=O)N2CCC(n3cnc4ccc(F)cc4c3=O)CC2)c(C)c1`, 790 s.
As to `O=C1CCCN1Cc1noc(-c2ccccc2)n1`, the RP-LC retention time is 731 s.
In the case of `CCc1nc2c(c(=O)n1CC(=O)NCCC1=CCCCC1)CN(Cc1ccccc1)CC2`, the RP-LC retention time was found to be 696 s.
As to `CCc1nc2c(c(=O)n1CC(=O)NCCCc1ccccc1)CN(Cc1ccccc1)CC2`, the RP-LC retention time stood at 1050 s.
Then `CC(=O)c1cccc(NC(=O)c2cnn3c4c(cnc23)CCCCCC4)c1`, with 1030 s; and `O=C(Nc1ccc2c(c1)OCCO2)N1CCC(OCCOCc2ccccc2)CC1`, with 853 s.
The compound `O=S(=O)(c1c[nH]c2ncccc12)N1CCN(c2ccccc2)CC1` had an RP-LC retention time of 805 s.
`COCC(C)NC(=O)c1ccc2c(c1)CCCN2S(C)(=O)=O` (stereo unspecified) yielded an RP-LC retention time of 679 s.
In turn, `O=C1NCCCc2c1oc1ccc(O)cc21` displayed an RP-LC retention time of 567 s.
On to `O=C(O)c1cccc(-c2ccc(N3CCCCCC3)nc2)c1`, for which the RP-LC retention time turned out to be 627 s.
Compound `O=C(Nc1ccc2c(c1)OCO2)C(=O)c1ccc[nH]1` registered an RP-LC retention time of 802 s.
Regarding `Cc1ccc(NC(=O)C2CCN(C(=O)C3Sc4ccccc4NC3=O)CC2)cc1C` (stereo unspecified), the RP-LC retention time worked out at 818 s.
Then `COCc1nc2c(NC(=O)C(C)C)cccn2n1`, with 653 s; and `COC(=O)C1=CN(c2cccc(Cl)c2)c2ccccc2S1(=O)=O`, with 879 s; and `COc1cccc(CNC(=O)C2CCN(C(=O)c3n[nH]c4ccccc34)CC2)c1`, with 641 s.
As to `Cn1c(N2CCCN(C(=O)c3ccc(Br)cc3)CC2)cc(=O)n(C)c1=O`, the RP-LC retention time was 664 s.
Take `Cc1cc(C(=O)NCCCN2CCOCC2)nc2cc(-c3ccccn3)nn12`: the RP-LC retention time worked out at 630 s.
Consider `Cc1ccc(S(=O)(=O)N2CCc3c(c(-c4nnc(-c5ccc(F)cc5)o4)nn3C)C2)cc1C`, for which the RP-LC retention time was 851 s.
Then `COCCN1C(=O)Cc2ccccc2C1C(=O)NCc1ccco1` (stereo unspecified), with 676 s; and `O=S(=O)(c1cccc(Br)c1)N1CCc2nc(-c3ccccc3)ncc2C1`, with 1130 s; and `Cc1ccc(C(=O)N2CCC(n3c(C)cnc3C)C2)s1` (stereo unspecified), with 585 s.
`COc1c(C(=O)NC2CCCC2)sc2ccc(F)cc12` returned an RP-LC retention time of 1080 s.
Take `CCCn1c(CCNC(=O)c2ccc(Cl)cc2)nc2cccnc21`: the RP-LC retention time amounted to 722 s.
`O=C(Nc1ccc(F)cc1Cl)C1CCc2sc(C(=O)N3CCOCC3)cc2C1` (stereo unspecified) had an RP-LC retention time of 748 s.
For `COCCNC(=O)C1c2ccccc2CC(=O)N1C(C)C` (stereo unspecified) the value was 648 s; for `Cc1ccc(-c2noc(Cc3nnc(-c4cccc(F)c4)o3)n2)cc1`, 1070 s; for `Cc1nn(-c2ccc(Cl)cc2)c(C)c1S(=O)(=O)N1CCC(C(=O)N2CCN(C)CC2)CC1`, 642 s.
Take `Cn1c(C2CCN(C(=O)c3ccsc3)C2)nc2cccnc21` (stereo unspecified): the RP-LC retention time was 606 s.
As to `Cc1ccc(-c2nnc(-c3nc(N4CCOCC4)c4ccccc4n3)o2)cc1`, the RP-LC retention time amounted to 945 s.
For `CC(=O)c1ccc(NC(=O)c2c[nH]c3ncccc23)cc1` the value was 652 s; for `CCCN(CC1CCOC1)S(=O)(=O)c1cc(Cl)ccc1OC` (stereo unspecified), 939 s.
As for `O=C(CN1CCN(Cc2ccccc2F)C1=O)N1CCN(c2ccccc2F)CC1`, the RP-LC retention time turned out to be 857 s.
`CC1(C)C(=O)N(CC(=O)Nc2ccccc2Cl)c2ccccc21` showed an RP-LC retention time of 912 s.
`CCc1nc(-c2ccc(-c3noc(CNS(=O)(=O)c4ccccc4)n3)cc2)cs1`: the RP-LC retention time worked out at 1020 s.
`COc1ccc(-c2ccc(=O)n(Cc3nc(-c4ccccc4)no3)n2)cc1`: the RP-LC retention time was 954 s.
As for `CC(C)c1csc(-c2csc(S(=O)(=O)NC3CCCCC3)c2)n1`, the RP-LC retention time was 1180 s.
`O=C(Nc1ccc2c(c1)CN(C(=O)c1ccco1)CC2)c1cnccn1`: the RP-LC retention time came out at 662 s.
In turn, `O=C(CN1C(=O)C2CCCCN2c2ccc(C(=O)N3CCCCC3)cc21)NCc1cccnc1` (stereo unspecified) showed an RP-LC retention time of 615 s.
Turning to `Cc1cc(=O)n(CC(=O)Nc2ccc3c(c2)OCO3)c(-c2ccc(F)cc2)n1`, the RP-LC retention time is 974 s.
In turn, `CCOc1ccc(NC2=NS(=O)(=O)C(c3ccc(OC)cc3)=C2C)cc1` gave an RP-LC retention time of 940 s.
`CCOc1ccc(S(=O)(=O)Nc2ccc3c(c2)CCC(=O)N3CC(C)C)cc1` registered an RP-LC retention time of 901 s.
On to `COc1ccc(C(=O)N2CCN(c3ccc(-c4nc(C)cs4)cn3)CC2)cc1`, for which the RP-LC retention time came out at 805 s.
Then `COc1ccc(NC(=O)N(Cc2nnc3n2CCCCC3)c2cccc(OC)c2)cc1`, with 700 s; and `COc1cc(CN(C(=O)c2ccc(OC(C)C)cc2)C2CCS(=O)(=O)C2)cc(OC)c1OC` (stereo unspecified), with 868 s; and `CCN(CC)CCNC(=O)c1nnc(-c2oc3c(C)cccc3c2C)o1`, with 683 s.
As to `CCCC1O[C@@H]2C[C@H]3[C@@H]4CCC5=CC(=O)C=C[C@]5(C)[C@H]4[C@@H](O)C[C@]3(C)[C@]2(C(=O)CO)O1` (stereo partly specified), the RP-LC retention time is 1000 s.
`CNC(=O)c1ccc(-c2nc3cc(NS(=O)(=O)c4ccc(C)cc4C)ccc3n2C)cc1` showed an RP-LC retention time of 657 s.
